In US20230382926A1, “COMPOUNDS AND USES THEREOF” (The University of The West Indies, priority 2022, published 2023):

Columns and labels:
Assay in all cases: Rescue concentration, modified checkerboard MIC adjuvant assay
Format in all cases: cell-based
[1] = test system: Stenotrophomonas maltophilia MDR 7785; settings: S. maltophilia MDR 7785
Method: (§1) Reference microorganisms as well as clinical strains used to evaluate the antimicrobial adjuvant properties of SP-6azaBIM 125 and SP-6azaBIM 136 are listed in Table 3. Clinical strains of bacteria were kindly provided by the Faculty of Medical Sciences, UWI, St. Augustine, Trinidad. All bacterial cultures were cryopreserved in 30% glycerol/Brain Heart Infusion (BHI) at −80° C. Cultures were revived on BHI agar (Oxoid Ltd, England) and maintained at 4° C. until needed.
(§2) Prior to each experiment, cultures were streaked onto clean BHI agar plates and incubated at 35° C. for 24 hours. Colonies of the respective cultures were selected and inoculated in phosphate buffer saline (pH 7.5) to a 0.5 McFarland turbidity standard (equivalent to 10^8 CFU mL^−1). For inhibitory studies the bacterial suspensions were diluted 1:100 in cation-adjusted Mueller Hinton Broth (ca-MHB) (Oxoid Ltd, England). Fastidious bacteria including Streptococcus pneumoniae, Haemophilus infuenzae and Clostridium difficile were maintained on BHI agar with 5% defibrinated sheep blood and diluted in ca-MHB with 5% defibrinated sheep blood.
(§3) Antibiotic powders used in this study were purchased from Sigma Aldrich Ltd. (WI, USA). Antibiotic stock solutions were made at 50 mg mL^−1 according to Andrews (2001) and working solutions were prepared 24 h before use and stored at 4° C.
(§4) HCl salts of the of the SP-azaBIM test compounds were prepared prior to testing and stored at 4° C. Working preparations of each compound were made to 1 mg/mL in sterile deionised water.
(§5) The antibiotic adjuvant activity of the SPazaBIMs were evaluated in combination with representative antibiotics (representing 13 antibiotic classes) against the 19 pathogens strains listed in Table 3. To assess the adjuvant properties of the SP-azaBIM molecules, a modified checkerboard minimum inhibitory concentration assay was used. A fixed concentration of the respective antibiotic (susceptible breakpoint concentration) was mixed with a twofold dilution series of the test SP-azaBIM (FIG. 1). This was to determine the concentration of SP-azaBIM needed potentiate the antibiotic at a clinically susceptible breakpoint concentration. Antibiotic susceptible breakpoint concentrations for the respective bacteria were determined using Clinical Laboratory Standards Institute (CLSI) criteria M100 ED31.
(§6) In this study, only those antibiotics to which the bacterial was classed as resistant were included in the adjuvant assays. In this assay we recorded the rescue concentration of the SP-BIM for a respective antibiotic. The rescue concentration was defined as the concentration of the adjuvant that reduces the minimum inhibitory concentration (MIC) of an antibiotic to the susceptibility breakpoint.
(§7) Immediately prior to testing, the respective antibiotic and SP-azaBIM was dissolved in sterile deionised water at 20× the required test concentration. Each microtiter well was then inoculated with 180 μl of bacterial inoculum of 10^6 CFU/ml in ca-MHB, and 10 μl each if the antibiotic and SP-azaBIM was added to the plates. These plates were then incubated at 35° C. for 24 h under aerobic conditions. A similar method was followed for the fastidious pathogens except that they were cultured in ca-MHB with 5% sheep blood and 5% CO2.
(§8) Bacterial growth was visually inspected after the incubation period and the rescue concentration of the test SP-azaBIM was determined as the lowest concentration of the compound needed to reduce bacterial growth by 99.99% at the susceptible breakpoint concentration of the antibiotic. For example, CLSI states that Pseudomonas aeruginosa is susceptible to the Imipenem if the MIC is ≤2 μg mL^−1. If the bacteria can tolerate this concentration in vitro, then the bacteria has an intermediate or absolute resistance toward that antibiotic. […]

[2] = test system: Streptococcus pneumoniae ATCC 49619; settings: S. pneumoniae ATCC 49619
Method: as §1, §2, §3, §4, §5, §6, §7, §8

[3] = test system: Acinetobacter baumannii clinical isolate 9978; settings: A. baumannii clinical isolate 9978
Method: as §1, §2, §3, §4, §5, §6, §7, §8

[4] = test system: Enterococcus faecalis ATCC 51299; settings: E. faecalis ATCC 51299
Method: as §1, §2, §3, §4, §5, §6, §7, §8

[5] = test system: Pseudomonas aeruginosa MDR 5805; settings: P. aeruginosa MDR 5805
Method: as §1, §2, §3, §4, §5, §6, §7, §8

[6] = test system: Klebsiella pneumoniae ATCC 49472; settings: K. pneumoniae ATCC 49472
Method: as §1, §2, §3, §4, §5, §6, §7, §8

[7] = test system: Klebsiella pneumoniae ATCC BAA-2814; settings: K. pneumoniae ATCC BAA-2814
Method: as §1, §2, §3, §4, §5, §6, §7, §8

[8] = test system: Escherichia coli ATCC 35150; settings: E. coli ATCC 35150
Method: as §1, §2, §3, §4, §5, §6, §7, §8

[9] = Cef at susceptible breakpoint 8 μg mL^−1
[10] = Ceph at susceptible breakpoint 8 μg mL^−1
[11] = Chl at susceptible breakpoint 8 μg mL^−1
[12] = Gen at susceptible breakpoint 4 μg mL^−1
[13] = Imi at susceptible breakpoint 2 μg mL^−1
[14] = Mero at susceptible breakpoint 2 μg mL^−1
[15] = Amox at susceptible breakpoint 8 μg mL^−1
[16] = Col at susceptible breakpoint 2 μg mL^−1
[17] = Pol B at susceptible breakpoint 2 μg mL^−1
[18] = Amp at susceptible breakpoint 8 μg mL^−1
[19] = Dox at susceptible breakpoint 4 μg mL^−1
[20] = Col at susceptible breakpoint 8 μg mL^−1
[21] = Imi at susceptible breakpoint 1 μg mL^−1

Oc1ccc(C(c2c[nH]c3cnccc23)c2c[nH]c3cnccc23)cc1 [SP-6azaBIM 136, 4-(bis(1H-pyrrolo[2,3-c]pyridin-3-yl)methyl)phenol]
Rescue concentration, Cef (8) [1, 9]: 32 µg/mL
Rescue concentration, Ceph (8) [1, 10]: 64 µg/mL
Rescue concentration, Chl (8) [1, 11]: 16 µg/mL
Rescue concentration, Cip (2) ([1]; Cip at susceptible breakpoint 2 μg mL^−1): 16 µg/mL
Rescue concentration, Gen (4) [1, 12]: 64 µg/mL
Rescue concentration, Imi (2) [1, 13]: 32 µg/mL
Rescue concentration, Mero (2) [1, 14]: 32 µg/mL
Rescue concentration, Tri (2) ([1]; Tri at susceptible breakpoint 2 μg mL^−1): >128 µg/mL
Rescue concentration, Amox (2) ([2]; Amox at susceptible breakpoint 2 μg mL^−1): >128 µg/mL
Rescue concentration, Ery (0.25) ([2]; Ery at susceptible breakpoint 0.25 μg mL^−1): >128 µg/mL
Rescue concentration, Imi (0.12) ([2]; Imi at susceptible breakpoint 0.12 μg mL^−1): >128 µg/mL
Rescue concentration, Amox (8) [3, 15]: 16 µg/mL
Rescue concentration, Cef (8) [3, 9]: 32 µg/mL
Rescue concentration, Col (2) [3, 16]: 64 µg/mL
Rescue concentration, Gen (4) [3, 12]: 16 µg/mL
Rescue concentration, Imi (2) [3, 13]: 2 µg/mL
Rescue concentration, Mero (2) [3, 14]: 32 µg/mL
Rescue concentration, Pol B (2) [3, 17]: 64 µg/mL
Rescue concentration, Amp (8) [4, 18]: >128 µg/mL
Rescue concentration, Chl (8) [4, 11]: >128 µg/mL
Rescue concentration, Dox (4) [4, 19]: >128 µg/mL
Rescue concentration, Ery (0.5) ([4]; Ery at susceptible breakpoint 0.5 μg mL^−1): >128 µg/mL
Rescue concentration, Tri (8) ([4]; Tri at susceptible breakpoint 8 μg mL^−1): >128 µg/mL
Rescue concentration, Van (4) ([4]; Van at susceptible breakpoint 4 μg mL^−1): >128 µg/mL
Rescue concentration, Amox (8) [5, 15]: 2 µg/mL
Rescue concentration, Col (2) [5, 16]: 4 µg/mL
Rescue concentration, Gen (4) [5, 12]: 4 µg/mL
Rescue concentration, Imi (2) [5, 13]: 2 µg/mL
Rescue concentration, Mero (2) [5, 14]: 2 µg/mL
Rescue concentration, Pol B (2) [5, 17]: 4 µg/mL
Rescue concentration, Amox (8) [6, 15]: 32 µg/mL
Rescue concentration, Amp (8) [6, 18]: 64 µg/mL
Rescue concentration, Col (8) [6, 20]: 32 µg/mL
Rescue concentration, Imi (1) [6, 21]: 16 µg/mL
Rescue concentration, Mero (1) ([6]; Mero at susceptible breakpoint 1 μg mL^−1): 32 µg/mL
Rescue concentration, Pol B (8) ([6]; Pol B at susceptible breakpoint 8 μg mL^−1): 16 µg/mL
Rescue concentration, Amox (8) [7, 15]: 16 µg/mL
Rescue concentration, Amp (8) [7, 18]: 32 µg/mL
Rescue concentration, Aze (4) ([7]; Aze at susceptible breakpoint 4 μg mL^−1): 4 µg/mL
Rescue concentration, Azi (16) ([7]; Azi at susceptible breakpoint 16 μg mL^−1): 16 µg/mL
Rescue concentration, Cef (16) ([7]; Cef at susceptible breakpoint 16 μg mL^−1): 8 µg/mL
Rescue concentration, Ceph (8) [7, 10]: 16 µg/mL
Rescue concentration, Chl (8) [7, 11]: 32 µg/mL
Rescue concentration, Col (8) [7, 20]: 16 µg/mL
Rescue concentration, Dox (4) [7, 19]: 4 µg/mL
Rescue concentration, Gen (4) [7, 12]: 4 µg/mL
Rescue concentration, Imi (1) [7, 21]: 4 µg/mL
Rescue concentration, Tet (4) ([7]; Tet at susceptible breakpoint 4 μg mL^−1): 4 µg/mL
Rescue concentration, Amp (8) [8, 18]: 8 µg/mL
Rescue concentration, Cip (0.25) ([8]; Cip at susceptible breakpoint 0.25 μg mL^−1): 16 µg/mL
Rescue concentration, Dox (4) [8, 19]: 4 µg/mL
Rescue concentration, Imi (1) [8, 21]: 4 µg/mL
